Measured values: patent US20010014694A1, “Substituted phenyl compounds and derivatives thereof that modulate the activity of endothelin” (priority 1996, published 2001)

Columns and labels:
human ETB receptor = target: T1, human ETB receptor (Homo sapiens, UniProt P24530); assay: Binding Test #2: inhibition of 125I-labeled ET-1 binding to ETB receptors (transfected COS7 cell membranes); details: ETB over ETA; preferably at least 3-fold greater affinity, more preferably 5-fold or more
T1 construct: expressed in transfected cells; host or cells: COS7 cells, membrane preparation
T1 sequence (P24530 27-442): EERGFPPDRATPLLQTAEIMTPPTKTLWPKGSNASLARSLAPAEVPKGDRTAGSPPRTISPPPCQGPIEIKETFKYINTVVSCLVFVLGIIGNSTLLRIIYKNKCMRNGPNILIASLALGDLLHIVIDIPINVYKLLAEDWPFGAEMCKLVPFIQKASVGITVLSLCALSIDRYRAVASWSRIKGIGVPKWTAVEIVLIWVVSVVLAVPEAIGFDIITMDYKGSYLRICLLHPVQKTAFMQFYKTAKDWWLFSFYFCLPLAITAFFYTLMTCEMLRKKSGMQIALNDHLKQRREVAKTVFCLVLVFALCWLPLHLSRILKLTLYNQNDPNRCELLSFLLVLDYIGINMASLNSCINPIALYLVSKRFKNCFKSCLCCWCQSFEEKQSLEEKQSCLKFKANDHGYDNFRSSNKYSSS
Source text: (§1) Compounds that are potential endothelin antagonists are identified by testing their ability to compete with ^125I-labeled ET-1 for binding to human ETA receptors or ETB receptors present on isolated cell membranes. The effectiveness of the test compound as an antagonist or agonist of the biological tissue response of endothelin can also be assessed by measuring the effect on endothelin induced contraction of isolated rat thoracic aortic rings. The ability of the compounds to act as antagonists or agonists for ETB receptors can be assess by testing the ability of the compounds are to inhibit endothelin-1 induced prostacyclin release from cultured bovine aortic endothelial cells.
(§2) B. Endothelin Binding Inhibition—Binding Test #2: Inhibition of Binding to ETB Receptors
(§3) COS7 cells were transfected with DNA encoding the ETB receptor, The resulting cells, which express the human ETB receptor, were grown to confluence in T-150 flasks. Membrane was prepared as described above. The binding assay was performed as described above using the membrane preparation diluted with binding buffer to a concentration of 1 μg/50 μl.
Briefly, the COS7 cells, described above, that had been transfected with DNA encoding the ETB receptor and express the human ETB receptor on their surfaces were grown to confluence in T-175 flasks. Cells from multiple flasks were collected by scraping, pooled and centrifuged for 10 min at 190×g. The cells were resuspended in phosphate buffered saline (PBS) containing 10 mM EDTA using a Tenbroeck homogenizer. The suspension was centrifuged at 4° C. 57,800×g for 15 min, the pellet was resuspended in 5 ml of buffer A (5 mM HEPES buffer, pH 7.4 containing aprotinin (100 KIU/ml)) and then frozen and thawed once. Five ml of Buffer B (5 mM HEPES Buffer, pH 7.4 containing 10 mM MnCl2 and 0.001% deoxyribonuclease Type 1) was added, the suspension mixed by inversion and then incubated at 37° C. for 30 minutes. The mixture was centrifuged at 57,800×g as described above, the pellet washed twice with buffer A and then resuspended in buffer C (30 mM HEPES buffer, pH 7.4 containing aprotinin (100 KIU/ml) to give a final protein concentration of 2 mg/ml.
The binding assay was performed as described above using the membrane preparation diluted to give 1 μg/50 μl of binding buffer.

ETA and ETB receptors = assay: Endothelin binding inhibition assays of the Examples, result stated for ETA and/or ETB; set-up: species or system human; details: relative to the other compounds listed; in vitro binding assays
Source text: as §1
(§4) A. Endothelin Binding Inhibition—Binding Test #1: Inhibition of Binding to ETA Receptors
(§5) TE 671 cells (ATCC Accession No. HTB 139) express ETA receptors. These cells were grown to confluence in T-175 flasks. Cells from multiple flasks were collected by scraping, pooled and centrifuged for 10 min at 190×g. The cells were resuspended in phosphate buffered saline (PBS) containing 10 mM EDTA using a Tenbroeck homogenizer. The suspension was centrifuged at 4° C. at 57,800×g for 15 min, the pellet was resuspended in 5 ml of buffer A (5 mM HEPES buffer, pH 7.4 containing aprotinin (100 KIU/ml)) and then frozen and thawed once. 5 ml of Buffer B (5 mM HEPES Buffer, pH 7.4 containing 10 mM MnCl2 and 0.001% deoxyribonuclease Type 1) was added, the suspension mixed by inversion and then incubated at 37° C. for 30 minutes. The mixture was centrifuged at 57,800×g as described above, the pellet washed twice with buffer A and then resuspended in buffer C (30 mM HEPES buffer, pH 7.4 containing aprotinin (100 KIU/ml) to give a final protein concentration of 2 mg/ml and stored at −70° C. until use.
(§6) The membrane suspension was diluted with binding buffer (30 mM HEPES buffer, pH 7.4 containing 150 mM NaCl, 5 mM MgCl2, 0.5% Bacitracin) to a concentration of 8 μg/50 μl. ^25I-endothelin-1 (3,000 cpm, […]) was added to 50 μl of either: (A) endothelin-1 (for non specific binding) to give a final concentration 80 nM); (B) binding buffer (for total binding); or (C) a test compound (final concentration 1 nM to 100 μM). The membrane suspension (50 μl), containing up to 8 μg of membrane protein, was added to each of (A), (B), or (C). Mixtures were shaken, and incubated at 4° C. for 16-18 hours, and then centrifuged at 4° C. for 25 min at 2,500×g. Alternatively, the incubation was conducted at 24° C. When incubated at 24° C., the IC50 concentrations are 2- to 10-fold higher than when the incubation is conducted at 4° C. This, must be kept in mind when comparing IC50 concentrations among compounds provided herein.
The supernatant, containing unbound radioactivity, was decanted and the pellet counted on a Genesys multiwell gamma counter. The degree of inhibition of binding (D) was calculated according to the following equation: [formula]
Each test was generally performed in triplicate.
as §2, §3
Briefly, the COS7 cells, described above, that had been transfected with DNA encoding the ETB receptor and express the human ETB receptor on their surfaces were grown to confluence in T-175 flasks. Cells from multiple flasks were collected by scraping, pooled and centrifuged for 10 min at 190×g. The cells were resuspended in phosphate buffered saline (PBS) containing 10 mM EDTA using a Tenbroeck homogenizer. The suspension was centrifuged at 4° C. […]

human ETA receptors = target: T2, human ETA receptors (Homo sapiens, UniProt P25101); assay: Binding Test #1: inhibition of 125I-labeled ET-1 binding to ETA receptors (TE 671 cell membranes); details: ETA over ETB; preferably at least 3-fold greater affinity, more preferably 5-fold or more
T2 construct: endogenous in cells; host or cells: TE 671 cells (ATCC HTB 139), membrane preparation
T2 sequence (P25101 21-427): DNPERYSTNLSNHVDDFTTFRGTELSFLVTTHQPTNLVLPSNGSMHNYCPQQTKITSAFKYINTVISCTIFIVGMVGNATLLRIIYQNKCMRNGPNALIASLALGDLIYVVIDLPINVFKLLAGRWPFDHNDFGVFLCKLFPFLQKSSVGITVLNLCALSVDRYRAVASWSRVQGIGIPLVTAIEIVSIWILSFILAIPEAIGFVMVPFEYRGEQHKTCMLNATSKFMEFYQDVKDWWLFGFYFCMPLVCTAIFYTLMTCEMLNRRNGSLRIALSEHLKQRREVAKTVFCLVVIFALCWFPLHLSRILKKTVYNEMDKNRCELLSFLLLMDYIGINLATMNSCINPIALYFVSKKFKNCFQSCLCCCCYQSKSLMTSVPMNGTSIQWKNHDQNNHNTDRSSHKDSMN
Source text: as §1, §4, §5
as §6, with “When incubated at 24° C., the IC50 concentrations are 2- to 10-fold higher than when the incubation is conducted at 4° C. This, must be kept in mind when comparing IC50 concentrations among compounds provided herein.” left out
The supernatant, containing unbound radioactivity, was decanted and the pellet counted on a Genesys multiwell gamma counter. The degree of inhibition of binding (D) was calculated according to the following equation: [formula] […]

[1] = test system: non-cardiovascular tissues, such as kidney, adrenal gland, and cerebellum (ETB receptors predominate); details: cited from earlier work

2-[3,4-(methylenedioxy)phenoxy]-6-[2-(1-propenyl)-3,4-(methylenedioxy)phenoxy]benzoic acid [Example 17]
ETB selective (interact with greater affinity with one receptor sub-type than with the other) (human ETB receptor): ETB selective | More active among these compounds (ETA and ETB receptors): More active

2-[3,4-(methylenedioxy)phenoxy]-6-[(2-carboxyethyl)-4-methoxyphenoxy]benzoic acid [Example 23]
More active among these compounds (ETA and ETB receptors): More active

4,6-Bis[2-carboxy-3,4-(methylenedioxy)phenoxy]-2-(methylthio)pyrimidine
ETA selective (interact with greater affinity with one receptor sub-type than with the other) (human ETA receptors): ETA selective

4-[2-carboxy-3,4-(methylenedioxy)phenoxy]-6-[3,4-(methylenedioxy)phenoxy]-2-(methylthio)-pyrimidine
ETA selective (interact with greater affinity with one receptor sub-type than with the other) (human ETA receptors): ETA selective

COc1ccc(Oc2cccc(Oc3ccc4c(c3)OCO4)c2C(=O)O)cc1 [Example 1, 2-(4-Methoxyphenoxy)-6-[3,4-(methylenedioxy)phenoxy]benzoic acid]
More active among these compounds (ETA and ETB receptors): More active

Cc1ccc(Oc2cccc(Oc3ccc4c(c3)OCO4)c2C(=O)O)cc1 [Example 2, 2-[3,4-(methylenedioxy)phenoxy]-6-(4-methylphenoxy)benzoic acid]
More active among these compounds (ETA and ETB receptors): More active

O=C(O)c1c(Oc2ccc3c(c2)OCO3)cccc1Oc1ccc2c(c1)OCO2 [Example 5, 2,6-bis-[3,4-(methylenedioxy)phenoxy]benzoic acid]
More active among these compounds (ETA and ETB receptors): More active

COc1ccc(Oc2cccc(Oc3ccc(OC)cc3)c2C(=O)O)cc1 [Example 6, 2,6-bis-(4-methoxyphenoxy)benzoic acid]
ETB selective (interact with greater affinity with one receptor sub-type than with the other) (human ETB receptor): ETB selective | melting point: 222 to 224 °C

Cc1ccc(Oc2cccc(Oc3ccc4c(c3)OCO4)c2C(=O)O)c(Br)c1 [Example 7, 2-(2-Bromo-4-methylphenoxy)-6-[3,4-(methylenedioxy)phenoxy]benzoic acid]
More active among these compounds (ETA and ETB receptors): More active

Cc1ccc(Oc2cccc(Oc3ccc(C)cc3)c2C(=O)O)cc1 [Example 8, 2,6-bis-(4-methylphenoxy)benzoic acid]
ETB selective (interact with greater affinity with one receptor sub-type than with the other) (human ETB receptor): ETB selective | melting point: 205 to 206 °C

O=C(O)c1c(Oc2ccccc2)cccc1Oc1ccccc1 [Example 9, 2,6-diphenoxybenzoic acid]
melting point: 150 to 153 °C

Cc1cccc(Oc2cccc(Oc3ccc4c(c3)OCO4)c2C(=O)O)c1 [Example 11, 2-[3,4-(methylenedioxy)phenoxy]-6-(3-methylphenoxy)benzoic acid]
More active among these compounds (ETA and ETB receptors): More active

COc1ccc(Sc2cccc(Oc3ccc4c(c3)OCO4)c2C(=O)O)cc1 [Example 12, 2-(4-methoxythiophenoxy)-6-[3,4-(methylenedioxy)phenoxy]benzoic acid]
More active among these compounds (ETA and ETB receptors): More active

O=C(O)Cc1cccc(Oc2cccc(Oc3ccc4c(c3)OCO4)c2C(=O)O)c1 [Example 13, 2-[(3-Carboxymethyl)phenoxy]-6-[3,4-(methylenedioxy)phenoxy]benzoic acid]
ETB selective (interact with greater affinity with one receptor sub-type than with the other) (human ETB receptor): ETB selective | ETA selective (interact with greater affinity with one receptor sub-type than with the other) (human ETA receptors): ETA selective

O=C(O)Cc1ccc(Oc2cccc(Oc3ccc4c(c3)OCO4)c2C(=O)O)cc1 [Example 14, 2-[(4-Carboxymethyl)phenoxy]-6-[3,4-(methylenedioxy)phenoxy]benzoic acid]
ETA selective (interact with greater affinity with one receptor sub-type than with the other) (human ETA receptors): ETA selective

CCCc1cc2c(cc1Oc1cccc(Oc3ccc4c(c3)OCO4)c1C(=O)O)OCO2 [Example 18, 2-(3,4-methylenedioxy)phenoxy-6-[2-propyl-4,5-(methylenedioxy)phenoxy]benzoic acid]
More active among these compounds (ETA and ETB receptors): More active

O=C(O)CCc1cc2c(cc1Oc1cccc(Oc3ccc4c(c3)OCO4)c1C(=O)O)OCO2 [Example 19, 2-(3,4-methylenedioxy)phenoxy-6-[2-carboxyethyl-4,5-(methylenedioxy)phenoxy]benzoic acid]
ETB selective (interact with greater affinity with one receptor sub-type than with the other) (human ETB receptor): ETB selective | More active among these compounds (ETA and ETB receptors): More active

O=C(O)/C=C/c1cc2c(cc1Oc1cccc(Oc3ccc4c(c3)OCO4)c1C(=O)O)OCO2 [Example 20, 2-(3,4-methylenedioxy)phenoxy-6-[2-carboxy-trans-ethenyl-4,5-(methylenedioxy)phenoxy]benzoic acid]
More active among these compounds (ETA and ETB receptors): More active

COc1cccc(Oc2cccc(Oc3ccc4c(c3)OCO4)c2C(=O)O)c1 [Example 26, 2-[3,4-(methylenedioxy)phenoxy]-6-(3-methoxyphenoxy)benzoic acid]
More active among these compounds (ETA and ETB receptors): More active

(Thr^2,Phe^4,Thr^5,Tyr^6,Lys^7,Tyr^14) endothelin-1 [endothelin-3]
extent of inhibition of 125I-labelled endothelin-1 binding [1]: to the same extent

Ethyl 2-[3,4-(methylenedioxy)phenoxy]-6-[2-(carboxyethyl)-4-methoxyphenoxy]benzoate [Example 22]
More active among these compounds (ETA and ETB receptors): More active
